In patent US12162893B2 (Erasca, Inc., priority 2020, dated 2024):

Molecular target: T1, mutant G12C K-RAS (Homo sapiens, UniProt P01116, G12C)
T1 construct: made in house; host or cells: E. coli BL21
Assay: covalent adduct formation (CAF) with mutant G12C K-RAS
Format: binding
Design: CAF: unit not given here
Settings: for % CAF @ 10 μM,1 h: Table 6; for CAF: Table 3, Pyridone Core-Morpholine Unsubstituted; for CAF / % CAF (60 min): after 60 minutes at 10 micromolar
Experimental: Embodiments disclosed herein are further illustrated by the following examples in Tables 1-4 and the Examples hereinbelow. The Tables indicate the compound number, structure, the observed mass spectral molecular weight peak, and covalent adduct formation (CAF) with a mutant G12C K-RAS after 60 minutes at a concentration of 10 micromolar.

| % CAF @ 10 μM,1 h [%] | further results | Structure (SMILES) |
| --- | --- | --- |
| 95.9 |  | C=CC(=O)N1C[C@H](C)N(c2nc(=O)n3c4c(c(-c5ccc(F)cc5F)c(Cl)cc24)OC[C@H]3CC2CCN(C)CC2)C[C@H]1C [Example 288, (3R)-7-((2S,5R)-4-acryloyl-2,5-dimethylpiperazin-1-yl)-9-chloro-10-(2,4-difluorophenyl)-3-((1-methylpiperidin-4-yl)methyl)-2H-[1,4]oxazino[2,3,4-ij]quinazolin-5(3H)-one] |
| 94.6 |  | C=CC(=O)N1C[C@H](C)N(c2nc(=O)n3c4c(c(-c5ccc(F)cc5F)c(Cl)cc24)OC[C@@H]3CN2CCS(=O)(=O)CC2)C[C@H]1C [Example 269, (3S)-7-((2S,5R)-4-acryloyl-2,5-dimethylpiperazin-1-yl)-9-chloro-10-(2,4-difluorophenyl)-3-((1,1-dioxidothiomorpholino)methyl)-2H-[1,4]oxazino[2,3,4-ij]quinazolin-5(3H)-one] |
|  | CAF: 22.3 | C=CC(=O)N1C[C@H](C)N(c2c(C#N)c(=O)n3c4c(c(-c5c(O)cccc5F)c(Cl)cc24)OCC3)C[C@H]1C [Example 41, 7-((2S,5R)-4-acryloyl-2,5-dimethylpiperazin-1-yl)-9-chloro-10-(2-fluoro-6-hydroxyphenyl)-5-oxo-3,5-dihydro-2H-[1,4]oxazino[2,3,4-ij]quinoline-6-carbonitrile] |
| 94.4 |  | C=CC(=O)N1C[C@H](C)N(c2nc(=O)n3c4c(c(-c5cccc6ccccc56)c(Cl)cc24)OC[C@@H]3CN2CCN(C)CC2)C[C@H]1C (atropisomer, axis not shown) [Example 309, (3S,10R)-7-((2S,5R)-4-acryloyl-2,5-dimethylpiperazin-1-yl)-9-chloro-3-((4-methylpiperazin-1-yl)methyl)-10-(naphthalen-1-yl)-2,3-dihydro-5H-[1,4]oxazino[2,3,4-ij]quinazolin-5-one] |
| 56.9 |  | C=CC(=O)N1C[C@H](C)N(c2nc(=O)n3c4c(c(-c5ccc(F)cc5F)c(C#N)cc24)OC[C@H]3CCCN2C[C@@H]3C[C@H]2CO3)C[C@H]1C [Example 332, (3R)-3-(3-((1S,4S)-2-oxa-5-azabicyclo[2.2.1]heptan-5-yl)propyl)-7-((2S,5R)-4-acryloyl-2,5-dimethylpiperazin-1-yl)-10-(2,4-difluorophenyl)-5-oxo-2,3-dihydro-5H-[1,4]oxazino[2,3,4-ij]quinazoline-9-carbonitrile] |
| 54.6 |  | C=CC(=O)N1C[C@H](C)N(c2nc(=O)n3c4c(c(-c5ccc(F)cc5F)c(Cl)cc24)OC[C@H]3CO[C@H]2CCN(C)C2)C[C@H]1C [Example 335, (3R)-7-((2S,5R)-4-acryloyl-2,5-dimethylpiperazin-1-yl)-9-chloro-10-(2,4-difluorophenyl)-3-((((S)-1-methylpyrrolidin-3-yl)oxy)methyl)-2H-[1,4]oxazino[2,3,4-ij]quinazolin-5(3H)-one] |
|  | CAF: 0 | C=CC(=O)N1C[C@H](C)N(c2c(C#N)c(=O)n3c4c(c(-c5c(O)cccc5F)c(Cl)cc24)OCC3)C[C@H]1C [Example 43, (R)-7-((2S,5R)-4-acryloyl-2,5-dimethylpiperazin-1-yl)-9-chloro-10-(2-fluoro-6-hydroxyphenyl)-5-oxo-3,5-dihydro-2H-[1,4]oxazino[2,3,4-ij]quinoline-6-carbonitrile] |
| 87.6 |  | C=CC(=O)N1C[C@H](C)N(c2nc(=O)n3c4c(c(-c5ccc(F)cc5F)c(Cl)cc24)OC[C@H]3CCCN2CCS(=O)(=O)CC2)C[C@H]1C [Example 253, (3R)-7-((2S,5R)-4-acryloyl-2,5-dimethylpiperazin-1-yl)-9-chloro-10-(2,4-difluorophenyl)-3-(3-(1,1-dioxidothiomorpholino)propyl)-2,3-dihydro-5H-[1,4]oxazino[2,3,4-ij]quinazolin-5-one] |
| 59.2 |  | C=CC(=O)N1C[C@H](C)N(c2nc(=O)n3c4c(c(-c5ccc(F)cc5F)c(Cl)cc24)OC[C@@H]3CCCN2C[C@@H]3C[C@H]2CO3)C[C@H]1C [Example 266, (3S)-3-(3-((1S,4S)-2-oxa-5-azabicyclo[2.2.1]heptan-5-yl)propyl)-7-((2S,5R)-4-acryloyl-2,5-dimethylpiperazin-1-yl)-9-chloro-10-(2,4-difluorophenyl)-2,3-dihydro-5H-[1,4]oxazino[2,3,4-ij]quinazolin-5-one] |
| 0 |  | C=CC(=O)N1C[C@H](C)N(c2nc(=O)n3c4c(c(-c5c(O)cccc5F)c(Cl)cc24)OC[C@H]3CN(C)CC(F)(F)F)C[C@H]1C (atropisomer, axis not shown) [Example 241, (3R,10R)-7-((2S,5R)-4-acryloyl-2,5-dimethylpiperazin-1-yl)-9-chloro-10-(2-fluoro-6-hydroxyphenyl)-3-((methyl(2,2,2-trifluoroethyl)amino)methyl)-2H-[1,4]oxazino[2,3,4-ij]quinazolin-5(3H)-one] |
|  | % CAF (60 min) (Table 2, Pyrimidone Core-Morpholine Substituted): 0% | C=CC(=O)N1CCN(c2nc(=O)n3c4c(c(-c5c(O)cccc5F)c(Cl)cc24)OC[C@H]3CO)CC1 [Example 20, (3R,10R)-7-(4-acryloylpiperazin-1-yl)-9-chloro-10-(2-fluoro-6-hydroxyphenyl)-3-(hydroxymethyl)-2H-[1,4]oxazino[2,3,4-ij]quinazolin-5(3H)-one] |
|  | % CAF (60 min) (Table 4, Pyridone Core-Morpholine Substituted): 0% | C=CC(=O)N1C[C@H](C)N(c2c(C#N)c(=O)n3c4c(c(-c5c(O)cccc5F)c(Cl)cc24)OC[C@@H]3CN(C)C)C[C@H]1C [Example 49, (3S)-7-((2S,5R)-4-acryloyl-2,5-dimethylpiperazin-1-yl)-9-chloro-3-((dimethylamino)methyl)-10-(2-fluoro-6-hydroxyphenyl)-5-oxo-3,5-dihydro-2H-[1,4]oxazino[2,3,4-ij]quinoline-6-carbonitrile] |
| 51.2 |  | C=CC(=O)N1C[C@H](C)N(c2nc(=O)n3c4c(c(-c5ccc(F)cc5F)c(Cl)cc24)O[C@H](CCCO)C3)C[C@H]1C [Example 249, (2R)-7-((2S,5R)-4-acryloyl-2,5-dimethylpiperazin-1-yl)-9-chloro-10-(2,4-difluorophenyl)-2-(3-hydroxypropyl)-2,3-dihydro-5H-[1,4]oxazino[2,3,4-ij]quinazolin-5-one] |
